In data set [1] the target is T1, rM4 (Rattus norvegicus, UniProt P08485).
T1 sequence (P08485 1-478): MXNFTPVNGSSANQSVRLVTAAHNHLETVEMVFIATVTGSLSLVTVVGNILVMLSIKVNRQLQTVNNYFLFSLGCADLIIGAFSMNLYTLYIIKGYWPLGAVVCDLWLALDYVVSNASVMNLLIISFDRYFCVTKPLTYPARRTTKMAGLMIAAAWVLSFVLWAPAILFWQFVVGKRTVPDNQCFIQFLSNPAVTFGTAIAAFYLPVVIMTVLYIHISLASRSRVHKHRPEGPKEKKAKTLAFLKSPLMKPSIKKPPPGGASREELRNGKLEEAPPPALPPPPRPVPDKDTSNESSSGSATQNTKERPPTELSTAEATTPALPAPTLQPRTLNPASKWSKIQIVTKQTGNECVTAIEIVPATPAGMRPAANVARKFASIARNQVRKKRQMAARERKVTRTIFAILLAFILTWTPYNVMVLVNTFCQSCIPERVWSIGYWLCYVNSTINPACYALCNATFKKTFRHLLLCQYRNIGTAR
The data set is described as follows: Calcium mobilization assay with rM4/Gqi5-CHO cells, EC20 acetylcholine. The format is cell-based. As to conditions: 9a vs 6. In general terms: Calcium flux is commonly read through the fluorescence of an indicator in the cells.

A short description of data set [2]: In vitro clearance, rat. The following applies: predicted.
The test system of data set [3] is amphetamine-induced hyperlocomotion. As to conditions: cited from earlier work.
The nature of data set [4]: In vitro clearance, human. The following applies: predicted.
Data set [5] relates to rat M1-3,5. The data set is described as follows: Muscarinic subtype selectivity, rat M1-3,5. The data set is classed as cell-based. As to conditions: read-out: EC50 at rat M1-3,5; no activity.
The subject of data set [6] is human M1-3,5. The data set can be described thus: Muscarinic subtype selectivity, human M1-3,5. The data set is classed as cell-based. As to conditions: read-out: EC50 at human M1-3,5; no activity.
Data set [7] deals with 68 GPCRs, ion channels and transporter. The data set can be described thus: Eurofin Lead Profiling radioligand binding panel. As to conditions: 10 μM.
The target of data set [8] is DAT (Homo sapiens, UniProt Q01959). The data set can be described thus: Off-target full CRC, DAT. The format is binding.
Data set [9] addresses SERT (Homo sapiens, UniProt P31645). The data set can be described thus: Off-target full CRC, SERT. The data set is classed as binding.
Data set [10] has as its system GABA. The data set is described as follows: Off-target full CRC, GABA. The data set is classed as binding.
Data set [11] relates to BDZ. The data set is described as follows: Off-target full CRC, BDZ. The data set is classed as binding.
The target in data set [12] is T2, 5-HT3 (Homo sapiens, UniProt P46098).
T2 sequence (P46098 24-478): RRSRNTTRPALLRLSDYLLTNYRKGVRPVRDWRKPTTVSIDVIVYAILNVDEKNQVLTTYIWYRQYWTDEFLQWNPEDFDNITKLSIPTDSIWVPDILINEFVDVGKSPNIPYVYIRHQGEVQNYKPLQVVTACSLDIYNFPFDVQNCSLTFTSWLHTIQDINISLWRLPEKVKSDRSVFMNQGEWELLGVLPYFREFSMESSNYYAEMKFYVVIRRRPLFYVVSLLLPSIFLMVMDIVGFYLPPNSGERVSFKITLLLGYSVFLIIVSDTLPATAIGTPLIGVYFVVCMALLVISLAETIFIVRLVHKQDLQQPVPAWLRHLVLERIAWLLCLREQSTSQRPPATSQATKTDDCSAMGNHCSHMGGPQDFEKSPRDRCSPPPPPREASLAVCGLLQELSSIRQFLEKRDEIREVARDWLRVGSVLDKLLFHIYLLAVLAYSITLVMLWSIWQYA
The data set can be described thus: Off-target full CRC, 5-HT3. The format is binding.

Data set [13] has as its system amphetamine-induced hyperlocomotion. As to conditions: rat, 0.75 mg/kg amphetamine s.c., n = 7-8 per dose group.
Data set [14] deals with Ghrelin receptor (Homo sapiens, UniProt Q92847). The data set can be described thus: Off-target full CRC, Ghrelin receptor. The data set is classed as binding.
In data set [15] the target is Cytochrome P450 2D6 (Homo sapiens, UniProt P10635). The data set is described as follows: Cytochrome P450 inhibition, 2D6. The data set is classed as in vitro ADME.
The test system of data set [16] is M4. The data set is described as follows: M4 PAM potency, 6 compared with 2. The format is cell-based. The following applies: 6 vs 2.
The nature of data set [17]: Free fraction, 6 compared with 2. The format is in vitro ADME. The following applies: 6 vs 2.
For data set [18], the target named is hCav1 2 (Homo sapiens, UniProt Q13936). The data set can be described thus: Off-target full CRC, hCav1 2. The data set is classed as binding.
The nature of data set [19]: Rat brain:plasma partition coefficients. As to conditions: 0.25 hr after IV cassette dose (0.20-0.25 mg/kg), male SD rat, n=1. The format is in vivo.

Cytochrome P450 2D6, sequence (P10635 whole entry): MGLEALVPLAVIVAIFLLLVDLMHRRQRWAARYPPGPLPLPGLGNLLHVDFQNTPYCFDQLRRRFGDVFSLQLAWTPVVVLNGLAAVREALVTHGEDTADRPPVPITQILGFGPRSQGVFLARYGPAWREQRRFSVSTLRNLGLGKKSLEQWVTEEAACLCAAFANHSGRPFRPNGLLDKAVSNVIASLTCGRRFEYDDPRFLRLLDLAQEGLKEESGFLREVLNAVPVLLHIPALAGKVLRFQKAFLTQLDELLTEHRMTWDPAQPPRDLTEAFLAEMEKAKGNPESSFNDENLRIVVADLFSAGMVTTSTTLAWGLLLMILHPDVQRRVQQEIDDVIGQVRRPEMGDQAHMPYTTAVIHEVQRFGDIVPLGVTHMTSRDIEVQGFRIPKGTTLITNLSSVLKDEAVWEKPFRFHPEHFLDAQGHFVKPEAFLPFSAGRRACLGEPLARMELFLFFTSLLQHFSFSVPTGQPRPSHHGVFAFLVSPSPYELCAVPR
DAT, sequence (Q01959 whole entry, species assumed): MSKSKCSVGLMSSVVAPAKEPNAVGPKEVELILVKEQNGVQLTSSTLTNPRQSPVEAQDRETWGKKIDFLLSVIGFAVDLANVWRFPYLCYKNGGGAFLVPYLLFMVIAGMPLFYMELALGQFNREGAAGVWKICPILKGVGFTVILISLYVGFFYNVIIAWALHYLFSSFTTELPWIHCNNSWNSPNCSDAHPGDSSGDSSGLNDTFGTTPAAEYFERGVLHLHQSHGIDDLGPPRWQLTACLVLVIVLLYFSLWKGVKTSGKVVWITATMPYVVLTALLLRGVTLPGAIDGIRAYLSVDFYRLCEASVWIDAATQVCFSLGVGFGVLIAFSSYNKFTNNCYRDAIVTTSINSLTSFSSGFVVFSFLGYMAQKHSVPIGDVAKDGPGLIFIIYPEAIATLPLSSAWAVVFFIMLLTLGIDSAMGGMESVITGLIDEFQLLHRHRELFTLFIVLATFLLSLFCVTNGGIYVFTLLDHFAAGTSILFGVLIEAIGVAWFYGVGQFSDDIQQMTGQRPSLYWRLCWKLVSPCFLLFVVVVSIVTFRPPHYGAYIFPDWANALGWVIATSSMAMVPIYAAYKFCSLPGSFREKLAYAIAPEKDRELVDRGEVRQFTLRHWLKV
SERT, sequence (P31645 whole entry, species assumed): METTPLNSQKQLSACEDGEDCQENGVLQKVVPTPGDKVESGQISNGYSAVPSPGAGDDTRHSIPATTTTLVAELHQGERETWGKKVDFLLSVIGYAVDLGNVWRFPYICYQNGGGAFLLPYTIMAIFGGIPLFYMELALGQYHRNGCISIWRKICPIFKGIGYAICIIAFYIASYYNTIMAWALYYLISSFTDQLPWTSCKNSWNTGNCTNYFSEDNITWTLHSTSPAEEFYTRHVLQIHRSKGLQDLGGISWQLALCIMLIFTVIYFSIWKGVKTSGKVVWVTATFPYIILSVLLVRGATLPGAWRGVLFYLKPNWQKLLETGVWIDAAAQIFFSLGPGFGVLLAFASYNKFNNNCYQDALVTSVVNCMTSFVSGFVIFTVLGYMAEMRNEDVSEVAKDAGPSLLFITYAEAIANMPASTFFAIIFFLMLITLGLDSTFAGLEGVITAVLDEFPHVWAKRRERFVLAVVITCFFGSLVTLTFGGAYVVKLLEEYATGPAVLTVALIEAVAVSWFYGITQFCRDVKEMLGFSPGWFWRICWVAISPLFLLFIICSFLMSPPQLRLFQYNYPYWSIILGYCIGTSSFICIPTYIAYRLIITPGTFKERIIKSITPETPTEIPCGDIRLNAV
Ghrelin receptor, sequence (Q92847 whole entry, species assumed): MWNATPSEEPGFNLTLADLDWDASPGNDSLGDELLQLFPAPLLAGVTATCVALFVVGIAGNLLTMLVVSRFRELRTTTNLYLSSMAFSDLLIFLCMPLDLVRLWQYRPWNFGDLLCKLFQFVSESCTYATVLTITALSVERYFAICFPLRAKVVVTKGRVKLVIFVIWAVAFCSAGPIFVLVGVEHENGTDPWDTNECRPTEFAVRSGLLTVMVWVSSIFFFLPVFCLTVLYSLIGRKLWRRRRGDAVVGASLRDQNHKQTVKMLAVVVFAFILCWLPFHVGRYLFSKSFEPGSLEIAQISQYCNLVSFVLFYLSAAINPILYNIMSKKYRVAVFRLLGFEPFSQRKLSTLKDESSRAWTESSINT

Regarding `CSc1ccc(CNC(=O)c2sc3nnc(C)c(C)c3c2N)cc1` [9a], the “Fold increase in rat M4 PAM potency relative to 6” value in data set [1] is on record as roughly 10 fold.

With `Cc1nnc2sc(C(=O)NCc3ccc(S(=O)(=O)C(F)(F)F)cc3)c(N)c2c1C` [compound 5], in data set [2], the “CLHEP, rat” value is 28.4 mL/min/kg. For the same compound, the “% reversal in AHL (previously reported)” value in [3] (10 mg/kg p.o.) was 46%. Further, the “Minimum effective dose (MED) in AHL” value in data set [3] (p.o.) is on record as 3 mg/kg. Also, the “CLHEP, human” value in [4] is given as 10.2 mL/min/kg. Moreover, the EC50 in data set [5] and in [6] was greater than 30 µM in each case. Besides, the “% inhibition at any of the 68 targets in the Eurofin panel” value in [7] is on record as no more than 50%.

As to `Cc1nnc2sc(C(=O)NCc3ccc(S(F)(F)(F)(F)F)cc3)c(N)c2c1C` [9l], the “DAT ligand potency (full CRC)” value in data set [8] was determined as 0.15 µM. For the same compound, the “SERT ligand potency (full CRC)” value in data set [9] was determined as 0.52 µM. Further, the “CLHEP, rat” value in data set [2] was 40.5 mL/min/kg. In addition, the “GABA ligand potency (full CRC)” value in data set [10] came out at 2.1 µM. Besides, the “BDZ ligand potency (full CRC)” value in data set [11] was 1.5 µM. For the same compound, the “CLHEP, human” value in data set [4] is reported as 15.0 mL/min/kg. In data set [12], the “5-HT3 ligand potency (full CRC)” value stood at 1.5 µM. Also, the EC50 in [5] and in [6] was greater than 30 µM throughout. In data set [13], the “Full dose response AHL, result in words” value is “efficacious in vivo”. Also, the “% inhibition at multiple off-targets in the Eurofin panel” value in [7] is on record as greater than 50%. The “Ghrelin receptor ligand potency (full CRC)” value in data set [14] came out at 6.5 µM. For the same compound, the “Inhibition of CYP 2D6 (in words)” value in [15] is reported as “weak inhibition”.

Take `COc1ccc(CNC(=O)c2sc3nnc(C)c(C)c3c2N)cc1` [compound 6]: the “Fold enhancement of M4 PAM potency relative to 2” value in data set [16] stood at 4 fold. Also, the “Fold increase of free fraction relative to 2” value in data set [17] is “up to 9 fold”.

`Cc1nnc2sc(C(=O)NCc3ccc(S(=O)(=O)C(F)F)cc3)c(N)c2c1C` [9j]: the “DAT ligand potency (full CRC)” value in data set [8] turned out to be 0.175 µM. In addition, the “SERT ligand potency (full CRC)” value in data set [9] came out at 0.6 µM. In addition, the “CLHEP, rat” value in data set [2] is given as 28.1 mL/min/kg. The “hCav1 2 ligand potency (full CRC)” value in [18] stood at 5.7 µM. For the same compound, the “CLHEP, human” value in data set [4] is 9.34 mL/min/kg. The “5-HT3 ligand potency (full CRC)” value in data set [12] was 1.6 µM. For the same compound, the EC50 in data set [5] and in [6] was greater than 30 µM in each case. In addition, in [13], the “Full dose response AHL, result in words” value is given as “efficacious in vivo”. The “% inhibition at multiple off-targets in the Eurofin panel” value in data set [7] is greater than 50%. In addition, the “Inhibition of CYP 2D6 (in words)” value in data set [15] is “weak inhibition”.

For `Cc1nnc2sc(C(=O)NCc3ccc(S(=O)(=O)CF)cc3)c(N)c2c1C` [9i], the “Rat Kp (total brain:plasma partition coefficient)” value in [19] is given as “not detected in the CNS”.

The term EC50 denotes the concentration needed to bring the measured effect to its halfway point. The % inhibition is the change of the read-out against control, counted positive when it falls.

Values taken from PMC5340297 (Bioorganic & medicinal chemistry letters, 2016).
